Target: T1, chimeric human H3 receptor (Homo sapiens, UniProt Q9Y5N1, E19D)
T1 construct: made in house; host or cells: Sf9 insect cells (baculovirus infection); P2 membrane preparation
Test: Chimeric human H3 receptor GTP binding assay (agonist-stimulated GTP-gamma35S binding, Example 7)
Type: biochemical
Details: assay of Example 7; "*" in Ki of Table II; read-out: Ki
Method in brief: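 Sf9 membranes co-expressing the chimeric receptor and heterotrimeric G-protein subunits, 35 μg protein per tube, in pH 7.4 Tris buffer with 10 μM GDP. Test compounds at 10^−10 to 10^−6 M with 1 μM histamine, 60 min at room temperature. Filter-bound GTP-gamma^35S read by scintillation; IC50 from non-linear regression of dose-response curves.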

T1 sequence (Q9Y5N1 with tags, fused parts or gaps E19D): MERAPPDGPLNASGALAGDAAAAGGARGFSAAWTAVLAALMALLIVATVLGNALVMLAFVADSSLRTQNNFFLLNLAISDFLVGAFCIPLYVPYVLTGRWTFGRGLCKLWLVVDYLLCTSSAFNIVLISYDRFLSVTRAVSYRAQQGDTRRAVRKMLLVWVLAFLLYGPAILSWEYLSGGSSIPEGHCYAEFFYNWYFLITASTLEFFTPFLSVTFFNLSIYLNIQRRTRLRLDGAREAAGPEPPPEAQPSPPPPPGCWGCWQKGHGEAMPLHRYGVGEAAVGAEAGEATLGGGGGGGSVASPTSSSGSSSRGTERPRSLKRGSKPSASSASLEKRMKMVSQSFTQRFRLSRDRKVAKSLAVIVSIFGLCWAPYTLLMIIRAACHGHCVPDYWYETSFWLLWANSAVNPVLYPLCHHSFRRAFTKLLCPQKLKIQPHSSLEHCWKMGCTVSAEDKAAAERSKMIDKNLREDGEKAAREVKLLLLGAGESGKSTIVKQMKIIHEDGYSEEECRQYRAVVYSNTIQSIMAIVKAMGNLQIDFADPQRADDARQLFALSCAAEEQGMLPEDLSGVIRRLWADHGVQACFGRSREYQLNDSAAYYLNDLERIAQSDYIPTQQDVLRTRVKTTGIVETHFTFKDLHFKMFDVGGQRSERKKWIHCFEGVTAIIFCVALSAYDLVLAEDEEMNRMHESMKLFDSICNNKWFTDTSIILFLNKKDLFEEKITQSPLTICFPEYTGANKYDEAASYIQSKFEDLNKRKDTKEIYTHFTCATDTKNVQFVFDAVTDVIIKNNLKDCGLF

Ki, < 1 µM:
CC(C)NC(=O)c1ccc(N2CCN(CC(=O)N3CCN(C4CCC4)CC3)CC2)nc1 [Compound 1182, 6-{4-[2-(4-cyclobutylpiperazin-1-yl)-2-oxoethyl]piperazin-1-yl}-N-isopropylnicotinamide]
O=C(NC1CCCC1)c1ccc(N2CCN(CC(=O)N3CCN(C4CCC4)CC3)CC2)nc1 [Compound 1183, 6-{4-[2-(4-cyclobutylpiperazin-1-yl)-2-oxoethyl]piperazin-1-yl}-N-cyclopentylnicotinamide]
CCCC(C)NC(=O)c1ccc(N2CCN(CC(=O)N3CCN(C4CCC4)CC3)CC2)nc1 (stereo not drawn) [Compound 1184, 6-{4-[2-(4-cyclobutylpiperazin-1-yl)-2-oxoethyl]piperazin-1-yl}-N-(1-methylbutyl)nicotinamide]
O=C(NC1CCCCCC1)c1ccc(N2CCN(CC(=O)N3CCN(C4CCC4)CC3)CC2)nc1 [Compound 1185, 6-{4-[2-(4-cyclobutylpiperazin-1-yl)-2-oxoethyl]piperazin-1-yl}-N-cycloheptylnicotinamide]
O=C(NCC1CCCCC1)c1ccc(N2CCN(CC(=O)N3CCN(C4CCC4)CC3)CC2)nc1 [Compound 1186, 6-{4-[2-(4-cyclobutylpiperazin-1-yl)-2-oxoethyl]piperazin-1-yl}-N-(cyclohexylmethyl) nicotinamide]
CC(C)(C)CNC(=O)c1ccc(N2CCN(CC(=O)N3CCN(C4CCC4)CC3)CC2)nc1 [Compound 1187, 6-{4-[2-(4-cyclobutylpiperazin-1-yl)-2-oxoethyl]piperazin-1-yl}-N-(2,2-dimethylpropyl) nicotinamide]
CCC(CC)CNC(=O)c1ccc(N2CCN(CC(=O)N3CCN(C4CCC4)CC3)CC2)nc1 [Compound 1188, 6-{4-[2-(4-cyclobutylpiperazin-1-yl)-2-oxoethyl]piperazin-1-yl}-N-(2-ethylbutyl)nicotinamide]
N#Cc1ccc(N2CCN(CC(=O)N3CCN(C4CCC4)CC3)CC2)nn1 [Compound 1189, 6-{4-[2-(4-cyclobutylpiperazin-1-yl)-2-oxoethyl]piperazin-1-yl}pyridazine-3-carbonitrile]
O=C(CN1CCC2(CC1)C(=O)NCN2c1ccccc1)N1CCN(C2CCC2)CC1 [Compound 1190]
CC(C)N1CN(c2ccccc2)C2(CCN(CC(=O)N3CCN(C4CCC4)CC3)CC2)C1=O [Compound 1191]
CC(C)OC1=NCN(c2ccccc2)C12CCN(CC(=O)N1CCN(C3CCC3)CC1)CC2 [Compound 1192, 8-[2-(4-cyclobutylpiperazin-1-yl)-2-oxoethyl]-4-isopropoxy-1-phenyl-1,3,8-triazaspiro[4.5]dec-3-ene]
O=C(OCc1ccccc1)c1cccc(N2CCN(CC(=O)N3CCN(C4CCC4)CC3)CC2)c1 [Compound 1193, benzyl 3-{4-[2-(4-cyclobutylpiperazin-1-yl)-2-oxoethyl]piperazin-1-yl}benzoate]
O=C(c1ccc(N2CCN(CC(=O)N3CCN(C4CCC4)CC3)CC2)cc1)C1CCC1 [Compound 1194, cyclobutyl(4-{4-[2-(4-cyclobutylpiperazin-1-yl)-2-oxoethyl]piperazin-1-yl}phenyl)methanone]
CCOC(=O)c1cccc(-c2cnc(N3CCN(CC(=O)N4CCN(C5CCC5)CC4)CC3)cn2)c1 [Compound 1195, ethyl 3-(5-{4-[2-(4-cyclobutylpiperazin-1-yl)-2-oxoethyl]piperazin-1-yl}pyrazin-2-yl)benzoate]
CCOC(=O)c1cccc(-c2ccc(N3CCN(CC(=O)N4CCN(C5CCC5)CC4)CC3)nn2)c1 [Compound 1196, ethyl 3-(6-{4-(2-(4-cyclobutylpiperazin-1-yl)-2-oxoethyl]piperazin-1-yl}pyridazin-3-yl)benzoate]
CCOC(=O)c1ccc(-c2cnc(N3CCN(CC(=O)N4CCN(C5CCC5)CC4)CC3)cn2)cc1 [Compound 1197, ethyl 4-(5-{4-[2-(4-cyclobutylpiperazin-1-yl)-2-oxoethyl]piperazin-1-yl}pyrazin-2-yl)benzoate]
CCOC(=O)c1ccc(-c2ccc(N3CCN(CC(=O)N4CCN(C5CCC5)CC4)CC3)nn2)cc1 [Compound 1198, ethyl 4-(6-{4-[2-(4-cyclobutylpiperazin-1-yl)-2-oxoethyl]piperazin-1-yl}pyridazin-3-yl)benzoate]
CCOC(=O)c1ccc(-c2ccc(N3CCN(CC(=O)N4CCN(C5CCC5)CC4)CC3)cc2)cc1 [Compound 1199, ethyl 4′-{4-[2-(4-cyclobutylpiperazin-1-yl)-2-oxoethyl]piperazin-1-yl}biphenyl-4-carboxylate]
CCOC(=O)c1cccc(-c2ccc(N3CCN(CC(=O)N4CCN(C5CCC5)CC4)CC3)cc2)c1 [Compound 1200, ethyl 4′-{4-[2-(4-cyclobutylpiperazin-1-yl)-2-oxoethyl]piperazin-1-yl}biphenyl-3-carboxylate]
CCOC(=O)c1ccc(N2CCN(CC(=O)N3CCN(C4CCC4)CC3)CC2)cc1 [Compound 1201, ethyl 4-{4-[2-(4-cyclobutylpiperazin-1-yl)-2-oxoethyl]piperazin-1-yl}benzoate]
COC(=O)c1ccc(N2CCN(CC(=O)N3CCN(C4CCC4)CC3)CC2)nc1 [Compound 1202, methyl 6-{4-[2-(4-cyclobutylpiperazin-1-yl)-2-oxoethyl]piperazin-1-yl}nicotinate]
CCC(C)NC(=O)c1cccc(N2CCN(CC(=O)N3CCN(C4CCC4)CC3)CC2)c1 (stereo not drawn) [Compound 1203, N-(sec-butyl)-3-{4-[2-(4-cyclobutylpiperazin-1-yl)-2-oxoethyl]piperazin-1-yl}benzamide]
CCC(C)NC(=O)c1ccc(N2CCN(CC(=O)N3CCN(C4CCC4)CC3)CC2)cc1 (stereo not drawn) [Compound 1204, N-(sec-butyl)-4-{4-[2-(4-cyclobutylpiperazin-1-yl)-2-oxoethyl]piperazin-1-yl}benzamide]
CCC(C)NC(=O)c1ccc(N2CCN(CC(=O)N3CCN(C4CCC4)CC3)CC2)nc1 (stereo not drawn) [Compound 1205, N-(sec-butyl)-6-{4-[2-(4-cyclobutylpiperazin-1-yl)-2-oxoethyl]piperazin-1-yl}nicotinamide]
CCN(CC)C1CCN(CC(=O)N2CCN(C(C)C)CC2)C1 (stereo not drawn) [Compound 1206, N,N-diethyl-1-[2-(4-isopropylpiperazin-1-yl)-2-oxoethyl]pyrrolidin-3-amine]
O=C(CC1CCCC1)NC1CCN(CC(=O)N2CCN(C3CCC3)CC2)CC1 [Compound 1208, N-{1-[2-(4-cyclobutylpiperazin-1-yl)-2-oxoethyl]piperidin-4-yl}-2-cyclopentylacetamide]
O=C(CC1CCCCC1)NC1CCN(CC(=O)N2CCN(C3CCC3)CC2)CC1 [Compound 1209, N-{1-[2-(4-cyclobutylpiperazin-1-yl)-2-oxoethyl]piperidin-4-yl}-2-cyclohexylacetamide]
CCCC(C)C(=O)NC1CCN(CC(=O)N2CCN(C3CCC3)CC2)CC1 (stereo not drawn) [Compound 1210, N-{1-[2-(4-cyclobutylpiperazin-1-yl)-2-oxoethyl]piperidin-4-yl}-2-methylpentanamide]
Cc1cc(C)cc(C(=O)NC2CCN(CC(=O)N3CCN(C4CCC4)CC3)CC2)c1 [Compound 1211, N-{1-[2-(4-cyclobutylpiperazin-1-yl)-2-oxoethyl]piperidin-4-yl}-3,5-dimethylbenzamide]
Cc1ccc(C(=O)NC2CCN(CC(=O)N3CCN(C4CCC4)CC3)CC2)cc1C [Compound 1212, N-{1-[2-(4-cyclobutylpiperazin-1-yl)-2-oxoethyl]piperidin-4-yl}-3,4-dimethylbenzamide]
CCOc1cccc(C(=O)NC2CCN(CC(=O)N3CCN(C4CCC4)CC3)CC2)c1 [Compound 1213, N-{1-[2-(4-cyclobutylpiperazin-1-yl)-2-oxoethyl]piperidin-4-yl}-3-ethoxybenzamide]
COc1ccc(C(=O)NC2CCN(CC(=O)N3CCN(C4CCC4)CC3)CC2)cc1F [Compound 1214, N-{1-[2-(4-cyclobutylpiperazin-1-yl)-2-oxoethyl]piperidin-4-yl}-3-fluoro-4-methoxybenzamide]
O=C(CCC1CCCC1)NC1CCN(CC(=O)N2CCN(C3CCC3)CC2)CC1 [Compound 1215, N-{1-[2-(4-cyclobutylpiperazin-1-yl)-2-oxoethyl]piperidin-4-yl}-cyclopentylpropanamide]
CC(C)(C)CC(=O)NC1CCN(CC(=O)N2CCN(C3CCC3)CC2)CC1 [Compound 1216, N-{1-[2-(4-cyclobutylpiperazin-1-yl)-2-oxoethyl]piperidin-4-yl}-3,3-dimethylbutanamide]
Cc1ccc(C(=O)NC2CCN(CC(=O)N3CCN(C4CCC4)CC3)CC2)cc1 [Compound 1217, N-{1-[2-(4-cyclobutylpiperazin-1-yl)-2-oxoethyl]piperidin-4-yl}-4-methylbenzamide]
CCCc1ccc(C(=O)NC2CCN(CC(=O)N3CCN(C4CCC4)CC3)CC2)cc1 [Compound 1218, N-{1-[2-(4-cyclobutylpiperazin-1-yl)-2-oxoethyl]piperidin-4-yl}-4-propylbenzamide]
CC(C)c1ccc(C(=O)NC2CCN(CC(=O)N3CCN(C4CCC4)CC3)CC2)cc1 [Compound 1219, N-{1-[2-(4-cyclobutylpiperazin-1-yl)-2-oxoethyl]piperidin-4-yl}-4-isopropylbenzamide]
CCOc1ccc(C(=O)NC2CCN(CC(=O)N3CCN(C4CCC4)CC3)CC2)cc1 [Compound 1221, N-{1-[2-(4-cyclobutylpiperazin-1-yl)-2-oxoethyl]piperidin-4-yl}-4-ethoxybenzamide]
CSc1ccc(C(=O)NC2CCN(CC(=O)N3CCN(C4CCC4)CC3)CC2)cc1 [Compound 1222, N-{1-[2-(4-cyclobutylpiperazin-1-yl)-2-oxoethyl]piperidin-4-yl}-4-(methylthio)benzamide]

Source: US7851474B2, “Dipiperazinyl ketones and related analogues” (Neurogen Corporation, priority 2005, dated 2010)
